Key:
in vivo = details: male, Sprague-Dawley, rat
Protocol: Pharmacokinetic Study in the Rat
Male Sprague-Dawley rats (CD strain, Charles River Laboratories, Wilmington, Mass.) were dosed with test compounds via intravenous administration (IV) at a dose of 2.5 mg/kg or by oral gavage (PO) at a dose of 5 mg/kg. The dosing volume was 1 mL/kg for IV and 2 mL/kg for PO administration. Serial blood samples were collected from animals pre-dose, and at 2 (IV only), 5, 15, and 30 min, and at 1, 2, 4, 8, and 24 hours post-dose.
Standard pharmacokinetic parameters were assessed by non-compartmental analysis (Model 201 for IV and Model 200 for PO) using WinNonlin (Version 4.0.1, Pharsight, Mountain View, Calif.). The maximum in the curve of test compound concentration in blood plasma vs. time is denoted Cmax. The area under the concentration vs. time curve from the time of dosing to the last measurable concentration (AUC(0-t)) was calculated by the linear trapezoidal rule. Oral bioavailability (F(%)), i.e. the dose-normalized ratio of AUC(0-t) for PO administration to AUC(0-t) for IV administration, was calculated as: F(%)=AUCPO/AUCIV×DoseIV/DosePO×100%

[1] = target: T1, hERG cardiac potassium channel (Homo sapiens, UniProt Q12809); assay: in vitro; assay type: cell-based; details: pH 7.4
T1 construct: host or cells: CHO-K1 cells stably transfected with HERG cDNA
Protocol: In Vitro Voltage Clamp Assay of Inhibition of Potassium Ion Current in Whole Cells Expressing the hERG Cardiac Potassium Channel
CHO-K^1 cells stably transfected with HERG cDNA were obtained from Gail Robertson at the University of Wisconsin. Cells were held in cryogenic storage until needed. Cells were expanded and passaged in Dulbecco's Modified Eagles Medium/F12 supplemented with 10% fetal bovine serum and 200 μg/mL geneticin. Cells were seeded onto poly-D-lysine (100 μg/mL) coated glass coverslips, in 35 mm^2 dishes (containing 2 mL medium) at a density that enabled isolated cells to be selected for whole cell voltage-clamp studies. The dishes were maintained in a humidified, 5% CO2 environment at 37° C.
Extracellular solution was prepared at least every 7 days and stored at 4° C. when not in use. […]
The coverslips on which the cells were seeded were transferred to a recording chamber and perfused continuously. […] Peak current amplitudes during the repolarization phase were determined using pClamp software. […]
Peak current amplitudes during the repolarization phase were determined using pCLAMP software. […] The normalized current means and standard errors for each condition were calculated and plotted versus the time course of the experiment. […]

T1 sequence (Q12809 whole entry): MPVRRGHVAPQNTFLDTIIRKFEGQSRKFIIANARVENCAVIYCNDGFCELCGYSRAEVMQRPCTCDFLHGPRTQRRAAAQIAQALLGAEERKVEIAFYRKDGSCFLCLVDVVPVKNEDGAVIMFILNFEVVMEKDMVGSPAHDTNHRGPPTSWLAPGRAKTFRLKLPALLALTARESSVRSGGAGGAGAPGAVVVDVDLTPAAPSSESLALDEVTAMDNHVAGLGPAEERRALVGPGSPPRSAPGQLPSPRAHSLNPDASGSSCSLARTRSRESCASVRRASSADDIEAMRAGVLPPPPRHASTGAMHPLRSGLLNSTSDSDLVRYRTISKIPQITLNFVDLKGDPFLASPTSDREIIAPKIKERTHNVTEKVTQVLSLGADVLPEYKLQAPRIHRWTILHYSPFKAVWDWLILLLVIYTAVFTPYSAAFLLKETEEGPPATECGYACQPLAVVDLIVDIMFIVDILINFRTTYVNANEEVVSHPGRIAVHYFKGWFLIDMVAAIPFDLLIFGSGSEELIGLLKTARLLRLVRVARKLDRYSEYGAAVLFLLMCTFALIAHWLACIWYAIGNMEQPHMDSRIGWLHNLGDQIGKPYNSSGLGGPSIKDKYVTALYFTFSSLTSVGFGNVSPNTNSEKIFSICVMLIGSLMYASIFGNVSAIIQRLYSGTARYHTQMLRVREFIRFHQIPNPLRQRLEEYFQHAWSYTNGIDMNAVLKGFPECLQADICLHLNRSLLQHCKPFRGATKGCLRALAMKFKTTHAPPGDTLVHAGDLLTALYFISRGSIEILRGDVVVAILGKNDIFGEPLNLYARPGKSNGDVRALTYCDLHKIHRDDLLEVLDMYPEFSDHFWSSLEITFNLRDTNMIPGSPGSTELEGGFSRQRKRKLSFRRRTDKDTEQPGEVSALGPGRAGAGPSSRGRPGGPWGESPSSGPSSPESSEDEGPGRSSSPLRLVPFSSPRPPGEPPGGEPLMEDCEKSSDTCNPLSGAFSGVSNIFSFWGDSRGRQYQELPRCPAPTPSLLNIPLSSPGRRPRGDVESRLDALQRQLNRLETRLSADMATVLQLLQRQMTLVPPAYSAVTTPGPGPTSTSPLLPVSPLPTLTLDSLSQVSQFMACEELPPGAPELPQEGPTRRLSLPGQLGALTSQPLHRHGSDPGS

## CC(C)n1c(=O)c(C(=O)NC2CC3CCC(C2)N3CCCS(=O)(=O)N2CCN(C)CC2)cc2ccccc21 [Example 17, 1-isopropyl-2-oxo-1,2-dihydroquinoline-3-carboxylic acid {(1S,3R,5R)-8-[3-(4-methylpiperazine-1-sulfonyl)propyl]-8-azabicyclo[3.2.1]oct-3-yl}amide]
In vivo
  bioavailability: ~20%
In vivo; po, 5 mg/kg
  AUC(0-t): 450 ng·h/mL
  Cmax: 60 ng/mL
[1]
  inhibition at 5 min, 3 µM: < 15%

From patent US7875629B2, “Quinolinone compounds as 5-HT4 receptor agonists” (Theravance, Inc., priority 2005, dated 2011)
